From US20130116231A1, “TYROSINE KINASE INHIBITORS” (Merck Sharp & Dohme Corp., priority 2010, published 2013)

These compounds were tested against T1, human c-Met (Homo sapiens, UniProt P08581) (assay: in vitro kinase assay (homogeneous time-resolved tyrosine kinase assay, METKA)). Conditions: recombinant GST-tagged c-Met cytosolic domain, HTRF, 50 μM MgATP; read-out: Biological Activity (METKA IC50) Activity Code.
T1 construct: Recombinant GST-tagged cytosolic domains of human c-Met; 6xHis; made in house; host or cells: Sf9 or Sf21 insect cells (baculovirus)
Assay type: biochemical
Summary of the method: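 HTRF assay with GST-tagged cytosolic c-Met domain (0.2 nM), 0.5 μM biotinylated peptide, 50 μM MgATP, pH 7.4, 5% DMSO, 80 min at room temperature; Eu-anti-pTyr/SA-APC detection, IC50 by 4-parameter fit. Other kinases identical except enzyme level: mouse c-Met 0.2, Ron 2.5, KDR 8, IGFR 0.24, EGFR 0.24, FGFR 0.14, Mer 16, TrkA 8, Tie2 8 nM.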

T1 sequence (P08581 956-1390 limits assumed): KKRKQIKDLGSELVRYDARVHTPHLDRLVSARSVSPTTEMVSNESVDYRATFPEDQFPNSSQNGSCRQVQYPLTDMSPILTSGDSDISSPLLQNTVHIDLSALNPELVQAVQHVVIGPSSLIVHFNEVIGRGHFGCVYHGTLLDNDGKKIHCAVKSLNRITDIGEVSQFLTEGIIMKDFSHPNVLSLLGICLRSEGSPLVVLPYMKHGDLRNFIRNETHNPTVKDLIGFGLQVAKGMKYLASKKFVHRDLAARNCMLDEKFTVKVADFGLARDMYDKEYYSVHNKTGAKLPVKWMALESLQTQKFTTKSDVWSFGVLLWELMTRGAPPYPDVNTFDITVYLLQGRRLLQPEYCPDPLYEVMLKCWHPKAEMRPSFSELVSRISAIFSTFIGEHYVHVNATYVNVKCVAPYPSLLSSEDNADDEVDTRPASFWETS

| Compound | IC50 [nM] |
| --- | --- |
| COCCOc1cnc2ccc(OCc3nn(-c4ccc(F)c(F)c4)ccc3=O)cc2c1 [Example 30, 1-(3,4-difluorophenyl)-3-({[3-(2-methoxyethoxy)quinolin-6-yl]oxy}methyl)pyridazin-4(1H)-one] | < 100 |
| O=c1ccn(-c2cc(F)cc(F)c2)nc1COc1ccc2ncccc2c1 [Example 7, 1-(3,5-difluorophenyl)-3-[(quinolin-6-yloxy)methyl] pyridazin-4(1H)-one] | < 100 |
| Cn1cc(-n2ccc(=O)c(COc3ccc4ncc(OCC(F)F)cc4c3)n2)cn1 [Example 65, 3-({[3-(2,2-difluoroethoxy)quinolin-6-yl]oxy}methyl)-1-(1-methyl-1H-pyrazol-4-yl)pyridazin-4(1H)-one] | < 100 |
| Cc1ccc2cc(OCc3nn(-c4cnn(C)c4)ccc3=O)ccc2n1 [Example 13] | 100 to 1000 |
| Cn1cc(-n2ccc(=O)c(COc3ccc4nccc(Cl)c4c3)n2)cn1 [Example 97, 3-{[(4-Chloroquinolin-6-yl)oxy]methyl}-1-(1-methyl-1H-pyrazol-4-yl)pyridazin-4(1H)-one] | < 100 |
| CCn1cc(-n2ccc(=O)c(COc3ccc4ncc(OCc5noc(C)n5)cc4c3)n2)cn1 [Example 70, 1-(1-ethyl-1H-pyrazol-4-yl)-3-[({3-[(5-methyl-1,2,4-oxadiazol-3-yl)methoxy]quinolin-6-yl}oxy)methyl]pyridazin-4(1H)-one] | < 100 |
| CC(Oc1ccc2ncccc2c1)c1nn(-c2cccc(Br)c2)ccc1=O (single isomer, unassigned) [Example 113, 1-(3-bromophenyl)-3-[1-(quinolin-6-yloxy)ethyl]pyridazin-4(1H)-one] | 1000 to 3000 |
| Cn1cc(-n2ccc(=O)c(CCc3ccc(NCCCCO)cc3)n2)cn1 [Example 118, 3-(2-{4-[(4-hydroxybutyl)amino]phenyl}ethyl)-1-(1-methyl-1H-pyrazol-4-yl)pyridazin-4(1H)-one] | 100 to 1000 |
| Cn1cc(-n2ccc(=O)c(COc3ccc4ncc(OCC(C)(C)O)cc4c3)n2)cn1 [Example 62, 3-({[3-(2-Hydroxy-2-methylpropoxy)quinolin-6-yl]oxy}methyl)-1-(1-methyl-1H-pyrazol-4-yl)pyridazin-4(1H)-one] | < 100 |
| COC(=O)c1ccc(CCc2nn(-c3cnn(C)c3)ccc2=O)cc1 [Example 56, methyl 4-{2-[1-(1-methyl-1H-pyrazol-4-yl)-4-oxo-1,4-dihydropyridazin-3-yl]ethyl}benzoate] | 1000 to 3000 |
| Cn1cc(-n2ccc(=O)c(COc3ccc4ncc(-c5cnn(C6COC6)c5)cc4c3)n2)cn1 [Example 96, 1-(1-Methyl-1H-pyrazol-4-yl)-3-[({3-[1-(oxetan-3-yl)-1H-pyrazol-4-yl]quinolin-6-yl}oxy)methyl]pyridazin-4(1H)-one] | < 100 |
| CCOC(=O)Nc1ccc(CCc2nn(-c3cnn(C)c3)ccc2=O)cc1 [Example 121, ethyl (4-{2-[1-(1-methyl-1H-pyrazol-4-yl)-4-oxo-1,4-dihydropyridazin-3-yl]ethyl}phenyl)carbamate] | 1000 to 3000 |
| CCn1cc(-n2ccc(=O)c(COc3ccc4ncc(-c5ccc(F)cc5)cc4c3)n2)cn1 [Example 78, 1-(1-ethyl-1H-pyrazol-4-yl)-3-({[3-(4-fluorophenyl)quinolin-6-yl]oxy}methyl)pyridazin-4(1H)-one] | < 100 |
| N#Cc1ccc(-n2ccc(=O)c(COc3ccc4ncccc4c3)n2)cc1 [Example 5, 4-{4-oxo-3-[(quinolin-6-yloxy)methyl]pyridazin-1(4H)-yl}benzonitrile] | < 100 |

Second part, the compound after the results:

| IC50 [nM] | Compound |
| --- | --- |
| < 100 | O=c1ccn(-c2cncc(Br)c2)nc1COc1ccc2ncccc2c1 [Example 21, 1-(5-bromopyridin-3-yl)-3-[(quinolin-6-yloxy)methyl] pyridazin-4(1H)-one] |
| 100 to 1000 | CC(Oc1nn(-c2cnn(C)c2)ccc1=O)c1ccc2ncccc2c1 (single isomer, unassigned) [Example 139, 1-(1-methyl-1H-pyrazol-4-yl)-3-(1-quinolin-6-ylethoxy)pyridazin-4(1H)-one] |
| 1000 to 3000 | COc1ccnc2ccc(COc3nn(-c4cnn(C)c4)ccc3=O)cc12 [Example 137, 3-[(4-methoxyquinolin-6-yl)methoxy]-1-(1-methyl-1H-pyrazol-4-yl)pyridazin-4(1H)-one] |
| < 100 | Cn1cc(-n2ccc(=O)c(SCc3ccc4ncccc4c3)n2)cn1 [Example 149, 1-(1-methyl-1H-pyrazol-4-yl)-3-[(quinolin-6-ylmethyl)thio]pyridazin-4(1H)-one] |
| < 100 | CCn1cc(-n2ccc(=O)c(COc3ccc4ncc(Oc5ccccn5)cc4c3)n2)cn1 [Example 67, 1-(1-ethyl-1H-pyrazol-4-yl)-3-({[3-(pyridin-2-yloxy)quinolin-6-yl]oxy}methyl)pyridazin-4(1H)-one] |
| < 100 | Cn1cc(-n2ccc(=O)c(CCc3ccc4ncccc4c3)n2)cn1 [Example 53, 1-(1-Methyl-1H-pyrazol-4-yl)-3-[2-(quinolin-6-yl)ethyl]pyridazin-4(1H)-one] |
| < 100 | CN(Cc1nn(-c2cnn(C)c2)ccc1=O)c1ccc2ncccc2c1 [Example 108, 1-(1-Methyl-1H-pyrazol-4-yl)-3-{[methyl(quinolin-6-yl)amino]methyl}pyridazin-4(1H)-one] |
| < 100 | CCn1cc(-n2ccc(=O)c(COc3ccc4ncc(-c5ccccc5C)cc4c3)n2)cn1 [Example 84, 1-(1-ethyl-1H-pyrazol-4-yl)-3-({[3-(2-methylphenyl)quinolin-6-yl]oxy}methyl)pyridazin-4(1H)-one] |
| < 100 | CC(Nc1nn(-c2cnn(C)c2)ccc1=O)c1ccc2ncccc2c1 (stereo not shown) [Example 148] |
| 100 to 1000 | CCn1cc(-n2ccc(=O)c(OCc3ccc4ncccc4c3)n2)cn1 [Example 128, 1-(1-ethyl-1H-pyrazol-4-yl)-3-(quinolin-6-ylmethoxy)pyridazin-4(1H)-one] |
| < 100 | Cn1cc(-n2ccc(=O)c(COc3ccc4ncccc4c3)n2)cn1 [Example 1, 1-(1-Methyl-1H-pyrazol-4-yl)-3-[(quinolin-6-yloxy)methyl]pyridazin-4(1H)-one] |
